Laboratory results reported in EP0156091A1, “Beta-oxo-alpha-carbamoyl-pyrrolepropionitriles, processes for their preparation, pharmaceutical compositions comprising these compounds and their therapeutic use” (CIBA-GEIGY AG, priority 1984, dated 1985).

How the values were obtained:
[1] = test system: durch Carrageenin hervorgerufenen Oedem; test: Carrageenan paw oedema test; type: in vivo, Ratte; conditions: rat
Procedure: Der Carrageenin-Photenödem-Test in Hinsicht auf die antiinflammatorische Wirkung wird an der Ratte wie folgt durchgeführt: • Eine Stunde nach der oralen Verabreichung der Wirksubstanz wird in die Sohle einer hinteren Pfote 0,1 ml Carrageenin (1%-ig) injiziert. In bestimmten Zeiten wird dann die Differenz der Schwellung zwischen der behandelten und der intakten gegenseitigen Pfote durch Quecksilber-Verdrängung gemessen.
Als Beispiele der Erfindung seien das ß-0xo-a-(phenylcarbamoyl)-ß-(2-pyrrolyl)-propionitril des Beispeils 1 und das ß-0xo-a-(4-chlorphenyl)-ß-(2-pyrrolyl)-propionitril des Beispiels 2 genannt, welche bei einer peroralen Dosis von 100 mg/kg, gegen die durch Carrageenin hervorgerufenen Oedem an der Ratte, 3 Stunden nach der Verabreichung, einen 46 bzw. 63%-igen Schutz gewähren. Analog ergibt das β-Oxo-α-(2,4- difluorphenylcarbamoyl)-ß-(2-pyrrolyl)-propionitril des Beispiels 3, bei einer Dosis von 25 mg/kg/p.o. einen 33%-igen Schutz.

[2] = test system: BCG immunisierten Adjuvans-Arthritis-Ratte; test: Skin test (delayed hypersensitivity, PPD) in BCG-immunised adjuvant arthritis rat; type: in vivo; conditions: 25 mg/kg/p.o.
Text: Die Erhöhung der durch die Zellen vermittelten Immunität wird in-vivo an der mit BCG-immunisierten arthritischen Ratten durch Messung der Verzögerung der Ueberempfindlichkeitsreaktion, im wesentlichen wie in Current Therapeutic Research 30, S 34 (1981) beschrieben, gemessen.
Männliche Charles River Ratten von einem Gewicht von 325-400 g werden sensibilisiert, indem man jedem Versuchstier in die rechte hintere Pfotensohle […] Mycobacterium tuberculosis (Difco), das in Freund' schem Adjuvans (Freund's incomplete adjuvant) suspendiert ist, injiziert. Die Tiere werden am 18. Tag nach der Adjuvans-Injektion mit 0,1 ml BCG-Vakzine intradermal immunisiert. Die Wirksubstanz wird peroral in einer Maisstärke-Suspension verabreicht. Die Kontrolltiere werden lediglich mit der Maisstärke behandelt. Alle Tiere werden am 29. Tag an der Haut durch intradermale Verabreichung von 10 pg PPD (purified protein derivative) getestet, um Hautreaktionen hervorzurufen. Der Durchmesser des Erythems und die Erhärtungsreaktion werden 24 Stunden nach der Antigen-Behandlung gemessen. Eine […] des Erythem-Durchmessers deutet auf die erhöhte Zellenimmunität hin.

Adjuvans-Arthritis = test: Adjuvant arthritis test; type: in vivo, Ratte; conditions: rat, 25 mg/kg/p.o.
Procedure: Der übliche Adjuvans-Arthritis-Test für die anti-arthritische Aktivität wird im wesentlichen wie in Proc. Soc. Exp. Biol. Med. 137, 506 (1971) durchgeführt.
Weiter sind die Verbindungen der Erfindung, z.B. die vorher genannten Verbindungen der Beispiele 1, 2 und 3 in dem üblichen Adjuvans- Arthritis-Test an der Ratte bei einer Dosis von 25 mg/kg/p.o. aktiv und sie gewähren einen Schutz von 47%, 58% bzw. 55Z.
Beispiel 13: Der Schutz im üblichen Adjuvans-Arthritis-Test, der im wesentlichen gemäss Proc. Soc. Exp. Biol. Med. 137, 506 (1971) durchgeführt wird, ist wie folgt: […]

[3] = 100 mg/kg peroral, 3 hours after administration

N#CC(C(=O)Nc1ccccc1)C(=O)c1ccc[nH]1 (stereo not shown) [Beispiel 1, ß-Oxo-a-(phenylcarbamoyl)-ß-(2-pyrollyl)-propionitril]
Schutz gegen die durch Carrageenin hervorgerufenen Oedem [1, 3]: 46% | Wirkung im Haut-Test (immunopotenzierende Wirkung) [2]: signifikante Wirkung | Schutz im Adjuvans-Arthritis-Test (Adjuvans-Arthritis): 47%

N#CC(C(=O)Nc1ccc(Cl)cc1)C(=O)c1ccc[nH]1 (stereo not drawn) [Beispiel 2, β-Oxo-α-(4-chlorphenylcarbamoyl)-ß-(2-pyrrolyl)-propionitril]
Schutz gegen die durch Carrageenin hervorgerufenen Oedem [1, 3]: 63% | Wirkung im Haut-Test (immunopotenzierende Wirkung) [2]: signifikante Wirkung | Schutz im Adjuvans-Arthritis-Test (Adjuvans-Arthritis): 58%

N#CC(C(=O)Nc1ccc(F)cc1F)C(=O)c1ccc[nH]1 (stereo not shown) [Beispiel 3, ß-0xo-a-(2,4-difluorphenylcarbamoyl)-ß-(2-pyrrolyl)-propionitril]
Schutz gegen die durch Carrageenin hervorgerufenen Oedem ([1]; 25 mg/kg/p.o.): 33%
